Laboratory results published in patent US20260306459A1, “INHIBITORS OF NSUN1- AND NSUN2-MEDIATED ACTIVE STRUCTURES” (THE UNIVERSITY OF CHICAGO, priority 2023, published 2026).
“Also recorded” adds a separate entry of the source.

Legend:
SC cells = test: MTT growth inhibition in venetoclax-resistant monocytic leukemia cell line SC; type: cell-based, human; conditions: for Effective cell lines: SC: venetoclax-resistant human monocytic leukemia, wrapped cell
Description: (§1) FIGS. 8A-8B display a schematic of an 5-ethynyl uridine click chemistry (EC)-coupled flow cytometry (EC-FCM) assay (FIG. 8A), while FIG. 8B depicts the results of an EC-FCM assay showing distinct drug-specific signatures/patterns of nascent RNA synthesis inhibition in the venetoclax sensitive leukemia cell line (K1). The MTT assay measures cell viability and proliferation as well as cytotoxicity of compounds by assessing cellular metabolic activity. The associated measurement can be described as cell viability, cell killing, and/or growth inhibition.
(§2) FIGS. 11A-11D display scatter plot representations of screening results for AI-designed NSUN1-targeting compound libraries in a venetcoclax-resistant human myeloid leukemia cell line (SC), lung cancer cell line (H82), and venetoclax resistant human […], and a schematic representation of categorization of the results. A human myeloid leukemia cell Line (SC), a lung cancer cell line (H82 or K562) were both incubated at drug concentration 10 μM/μL overnight. MTT assays were performed after 24 hours, and changes were calculated as the percentage of mean absorbance (n=3) versus mean absorbance of drug-free control (n=3). Negative outliers indicated in red ovals. FIG. 11A depicts the results of an NSUN1-targeting drug library, 74 drugs, comparing growth/inhibition in H-82 (Y axis) and SC (X axis) cell lines. FIG. 11B depicts the results of an NSUN2-targeting drug library, 102 drugs, comparing growth/inhibition in H-82 (Y axis) and SC (X axis) cell lines. FIG. 11C depicts the results of an NSUN1-targeting drug library, 74 drugs, comparing growth/inhibition in K562 (Y axis) and SC (X axis) cell lines. FIG. 11D is a schematic representation showing categorization of the results from screens performed as described in FIG. 11, and validation experiments as described in FIG. 12.
(§3) FIGS. 12A-12J display bar graphs displaying the results of validation experiments for small molecule inhibitors of NSUN1/2-ACS interactions as identified herein. Drug validation of select SC, H82, and/or K562 inhibiting compounds in mouse acute myeloid leukemia cell Line (C1498), SC cells, H82 cells, and/or K562 cells. NSUN1-17 and/or venetoclax acted as controls. Inhibition of cell vitality was identified as dose-dependent for certain small molecules, not merely cytotoxic. In brief, stock with concentration 0.4×10^6 test (e.g., SC, H82, K562, or C1498, as labelled) cells/mL, and 10 μM/μL drug was serially diluted into drug-free cell stock to reach concentrations of 1 μM/μL and […] and split into 100 μL volumes in a 96-well plate. MTT assays performed after 24 hour incubation. Percentages calculated as a difference in mean absorbance of each drug triplicate and mean absorbance in drug-free cell triplicate. Red bars represent standard errors. The concentration of drug represented by each column is from left to right as written in the figure keys. FIGS. 12A-12E provide results from independent repeats for different groupings of small molecules tested against C1498 cells. FIGS. 12F-12G provide results from independent repeats for different groupings of small molecules tested against H82 cells. FIGS. […] provide results from independent repeats for different groupings of small molecules tested against SC cells. FIG. 12J provide results from an assay against K562 cells.
The inventors then designed a protocol for functional screening of NSUN1/2-targeting supercomputing/AI-derived compound libraries as schematically presented in FIGS. 5A-5G. Briefly, the library compounds were obtained from various chemical companies/vendors and dissolved in DMSO, and then applied to 96-well plates that contained leukemia and/or other cancer cells that were resistant to venetoclax. […]

[1] = system: leukemia and lung cancer cell lines; test: Functional (MTT) screening of NSUN1/2-targeting libraries in leukemia and lung cancer cell lines; type: cell-based, human; conditions: for Bioactive positive hit, tumor cell growth inhibition and lineage preference: leukemia and lung cancer cell lines; for Efficacy of tumor cell growth inhibition: multiple leukemia lines and/or lung cancer cell lines
Procedure: as §2, §3
The inventors then designed a protocol for functional screening of NSUN1/2-targeting supercomputing/AI-derived compound libraries as schematically presented in FIGS. 5A-5G. Briefly, the library compounds were obtained from various chemical companies/vendors and dissolved in DMSO, and then applied to 96-well plates that contained leukemia and/or other cancer cells that were resistant to venetoclax. Both the routine colorimetric assay (MTT assay) and the newly developed NSUN1/2-targeting fluorescence quenching and release (FQR) assay were performed to select bioactive compounds for further quantitative study to confirm that they targetNSUN1/2 and their associated ACS. As described below, the compound libraries screened through cancer cell proliferation and/or NSUN1/2 localization to the ACS successfully identified numerous promising compounds that can inhibit the leukemia cell growth and appear to target the NSUN1-mediated ACS (see Table 2). This success has proven the feasibility and efficacy of the described supercomputing/AI design and functional screening of the NSUN1/2-targeting drug libraries. In some aspects, screening is conducted using drug-resistant cell lines. […]

C1498 cells = test: MTT growth inhibition in myeloid leukemia cell line C1498; type: cell-based, mouse; conditions: C1498, mouse myeloid leukemia, wrapped cell
Description: as §1, §3
The inventors then designed a protocol for functional screening of NSUN1/2-targeting supercomputing/AI-derived compound libraries as schematically presented in FIGS. 5A-5G. Briefly, the library compounds were obtained from various chemical companies/vendors and dissolved in DMSO, and then applied to 96-well plates that contained leukemia and/or other cancer cells that were resistant to venetoclax. Both the routine colorimetric assay (MTT assay) and the newly developed NSUN1/2-targeting fluorescence quenching and release (FQR) assay were performed to select bioactive compounds for further quantitative study to confirm that they targetNSUN1/2 and their associated ACS. As described below, the compound libraries screened through cancer cell proliferation and/or NSUN1/2 localization to the ACS successfully identified numerous promising compounds that can inhibit the leukemia cell growth and appear to target the NSUN1-mediated ACS (see Table 2). This success has proven the feasibility and efficacy of the described supercomputing/AI design and functional screening of the NSUN1/2-targeting drug libraries. In some aspects, screening is conducted using drug-resistant cell lines. In some aspects, screening is conducted using drug-sensitive cell lines. In some aspects, screening is conducted in leukemia cell lines. In some aspects, screening is conducted in other cancer cell lines besides leukemia (e.g., lung cancer cell lines). In some aspects, NSUN1/2-ACS inhibitors identified are verified in additional cell lines and/or animal models (see e.g., Tables 4-6).

H82 cells = test: MTT growth inhibition in venetoclax-resistant lung cancer cell line H82; type: cell-based, human; conditions: H82, venetoclax-resistant human lung cancer, wrapped cell
Description: as §1, §2
FIGS. 12A-12J display bar graphs displaying the results of validation experiments for small molecule inhibitors of NSUN1/2-ACS interactions as identified herein. Drug validation of select SC, H82, and/or K562 inhibiting compounds in mouse acute myeloid leukemia cell Line (C1498), SC cells, H82 cells, and/or K562 cells. NSUN1-17 and/or venetoclax acted as controls. Inhibition of cell vitality was identified as dose-dependent for certain small molecules, not merely cytotoxic. In brief, stock with concentration 0.4×10^6 test (e.g., SC, H82, K562, or C1498, as labelled) cells/mL, and 10 μM/μL drug was serially diluted into drug-free cell stock to reach concentrations of 1 μM/μL and […] and split into 100 μL volumes in a 96-well plate. MTT assays performed after 24 hour incubation. Percentages calculated as a difference in mean absorbance of each drug triplicate and mean absorbance in drug-free cell triplicate. […]

Compound	Bioactive positive hit, tumor cell growth inhibition and lineage preference [1]	Effective cell lines: C1498 (C1498 cells)	further results
NC1(C(=O)NC(CCO)c2ccc(Cl)cc2)CCN(c2ncnc3[nH]ccc23)CC1 (stereo not drawn) [NSUN1-9]	inhibits tumor cell growth in a leukemia preferential manner	SC & C1498 >	Effective cell lines: SC (SC cells): SC & C1498 >; Effective cell lines: H82 (H82 cells): SC & C1498 >
CC(C)C[C@H](NC(=O)[C@@H](O)[C@H](N)Cc1ccccc1)C(=O)O [NSUN1-10, Bestatin or Ubenimex, reference compound]	inhibits tumor cell growth in a leukemia preferential manner	–	–
Nc1ncccc1-c1cc(Cc2ccc(COc3ccccn3)cc2)no1 [NSUN1-11]	inhibits tumor cell growth in a non-lineage specific manner	–	Inhibition of growth of venetoclax-resistant leukemia (SC) cells (SC cells): inhibition of the growth of venetoclax-resistant SC cells; also recorded: inhibit drug (venetoclax)-resistant leukemia cells
C=CC(=O)Nc1cccc(-c2cccc3cnc(Nc4ccc(N5CCN(CCO)CC5)c(F)c4F)nc23)c1 [NSUN1-14]	–	–	Efficacy of tumor cell growth inhibition [1]: high-efficacy of tumor cell growth inhibition
CC(C)Cc1nc(NC(=O)c2cc(-c3ccc4c(c3)CCO4)n[nH]2)n[nH]1 [NSUN1-17.16]	inhibits tumor cell growth in a non-lineage specific manner	–	–
NC1(Cc2ccc(Cl)cc2)CCN(c2ncnc3[nH]ccc23)CC1 [NSUN1-19]	inhibits tumor cell growth in a lung cancer preferential manner	H82 > SC &	Effective cell lines: SC (SC cells): H82 > SC &; Effective cell lines: H82 (H82 cells): H82 > SC &
Nc1nc(Cn2c(=O)oc3ccccc32)nc(Nc2ccccc2)n1 [NSUN1-22]	inhibits tumor cell growth in a lung cancer preferential manner	C1498 (weakly)	–
Oc1nc(Nc2ccc(Cl)cc2)nc2nccc(-c3ccncc3)c12 [NSUN1-67]	inhibits tumor cell growth in a non-lineage specific manner	–	–
Cc1[nH]nc2ccc(-c3cncc(OCC(N)Cc4ccccc4)c3)cc12 (stereo not drawn) [NSUN1-73]	–	–	Efficacy of tumor cell growth inhibition [1]: high-efficacy of tumor cell growth inhibition
O=C(Nc1cccc(-c2nnc3n2CCCC3)c1)c1cc(-c2ccccc2)n[nH]1 [NSUN1-74]	inhibits tumor cell growth in a non-lineage specific manner	C1498 (weakly)	–
O=c1ccc2ccc(OCN3CCN(c4cccc5sccc45)CC3)cc2[nH]1 [NSUN2-35, reference compound]	inhibits tumor cell growth in a lung cancer preferential manner	–	–
O=C(Nc1ccc(CN2CCCCC2)cc1)c1cccc(COc2ccc(Br)cc2)c1 [NSUN2-37]	inhibits tumor cell growth in a non-lineage specific manner	H82 & SC >	Effective cell lines: SC (SC cells): H82 & SC >; Effective cell lines: H82 (H82 cells): H82 & SC >
